According to patent US20250073255A1, “USE OF FA-TYPE LIPID COMPOUNDS IN PREPARATION OF NUCLEIC ACID DELIVERY REAGENT AND RELATED PRODUCT” (BEIJING BAISHIKANG PHARMACEUTICAL TECHNOLOGY (BSJPHARMA) …, priority 2021, published 2025):

Tested on: C57BL/6 male mice
Experiment: In vivo delivery study of lipid nucleic acid mixture (oral gavage, RT-qPCR of PGY-sRNA-26 in tissues)
Parameters: species or system mouse
Conditions: for oral delivery of single-stranded sRNA nucleic acids into mouse blood / oral delivery of single-stranded sRNA nucleic acids into mouse brain tissue / oral delivery of single-stranded sRNA nucleic acids into mouse femur / oral delivery of single-stranded sRNA nucleic acids into mouse heart tissue / oral delivery of single-stranded sRNA nucleic acids into mouse intestinal tissue / oral delivery of single-stranded sRNA nucleic acids into mouse kidney tissue / oral delivery of single-stranded sRNA nucleic acids into mouse liver tissue / oral delivery of single-stranded sRNA nucleic acids into mouse lung tissue / oral delivery of single-stranded sRNA nucleic acids into mouse pancreatic tissue / oral delivery of single-stranded sRNA nucleic acids into mouse spleen tissue / oral delivery of single-stranded sRNA nucleic acids into mouse stomach tissue: 100 μg lipid:10 nmol PGY-sRNA-26, sampled after 12 hours; for oral delivery of single-stranded sRNA nucleic acids into mouse heart tissue: vs free uptake group; for oral delivery of single-stranded sRNA nucleic acids into mouse intestinal tissue: intestine; for oral delivery of single-stranded sRNA nucleic acids into mouse pancreatic tissue: pancreas
Summary of the method: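 Stem-loop RT and SYBR qPCR, normalized to U6, measured PGY-sRNA-26 in blood and organs 12 h after gavage. Dosing was 10 nmol sRNA with 100 μg lipid, pre-mixed and heated 15 min at 90 °C, in 12-h-fasted mice, against saline and free-sRNA groups.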

In the case of `C=C(C)CCOC(=O)CCCCCCCCCCCCCCCCCCC` [Lipid 814, 3-methylbut-3-enyl icosanoate], the “oral delivery of single-stranded sRNA nucleic acids into mouse blood” value is reported as “can effectively orally deliver”, the “oral delivery of single-stranded sRNA nucleic acids into mouse brain tissue” value is reported as “can effectively orally deliver” and the “oral delivery of single-stranded sRNA nucleic acids into mouse femur” value is reported as “can effectively orally deliver”. For the same molecule, the “oral delivery of single-stranded sRNA nucleic acids into mouse heart tissue” value was “can effectively orally deliver”, the “oral delivery of single-stranded sRNA nucleic acids into mouse intestinal tissue” value was “can effectively orally deliver” and the “oral delivery of single-stranded sRNA nucleic acids into mouse kidney tissue” value was “can effectively orally deliver”. For the same molecule, the “oral delivery of single-stranded sRNA nucleic acids into mouse liver tissue” value was “can effectively orally deliver”, the “oral delivery of single-stranded sRNA nucleic acids into mouse lung tissue” value was “can effectively orally deliver” and the “oral delivery of single-stranded sRNA nucleic acids into mouse pancreatic tissue” value was “can effectively orally deliver”. For the same molecule, the “oral delivery of single-stranded sRNA nucleic acids into mouse spleen tissue” value was “can effectively orally deliver” and the “oral delivery of single-stranded sRNA nucleic acids into mouse stomach tissue” value was “can effectively orally deliver”.

In the case of `C=C(C)CCOC(=O)CCCCCCCCCCCCCCCCCCCCC` [Lipid 815, 3-methylbut-3-enyl docosanoate], the “oral delivery of single-stranded sRNA nucleic acids into mouse blood” value is reported as “can effectively orally deliver”, the “oral delivery of single-stranded sRNA nucleic acids into mouse brain tissue” value is reported as “can effectively orally deliver” and the “oral delivery of single-stranded sRNA nucleic acids into mouse femur” value is reported as “can effectively orally deliver”. The “oral delivery of single-stranded sRNA nucleic acids into mouse heart tissue” value was “can effectively orally deliver”, the “oral delivery of single-stranded sRNA nucleic acids into mouse intestinal tissue” value was “can effectively orally deliver” and the “oral delivery of single-stranded sRNA nucleic acids into mouse kidney tissue” value was “can effectively orally deliver”. For the same molecule, the “oral delivery of single-stranded sRNA nucleic acids into mouse liver tissue” value was “can effectively orally deliver”, the “oral delivery of single-stranded sRNA nucleic acids into mouse lung tissue” value was “can effectively orally deliver” and the “oral delivery of single-stranded sRNA nucleic acids into mouse pancreatic tissue” value was “can effectively orally deliver”. For the same molecule, the “oral delivery of single-stranded sRNA nucleic acids into mouse spleen tissue” value was “can effectively orally deliver” and the “oral delivery of single-stranded sRNA nucleic acids into mouse stomach tissue” value was “can effectively orally deliver”.

`CC/C=C\CCOC(=O)[C@H](O)C(C)C` [Lipid 816, [(Z)-hex-3-enyl] (2R)-2-hydroxy-3-methylbutanoate] was tested, and the “oral delivery of single-stranded sRNA nucleic acids into mouse blood” value was “can effectively orally deliver”, the “oral delivery of single-stranded sRNA nucleic acids into mouse brain tissue” value was “can effectively orally deliver” and the “oral delivery of single-stranded sRNA nucleic acids into mouse femur” value was “can effectively orally deliver”. For the same molecule, the “oral delivery of single-stranded sRNA nucleic acids into mouse heart tissue” value was “can effectively orally deliver”, the “oral delivery of single-stranded sRNA nucleic acids into mouse intestinal tissue” value was “can effectively orally deliver” and the “oral delivery of single-stranded sRNA nucleic acids into mouse kidney tissue” value was “can effectively orally deliver”. For the same molecule, the “oral delivery of single-stranded sRNA nucleic acids into mouse liver tissue” value was “can effectively orally deliver”, the “oral delivery of single-stranded sRNA nucleic acids into mouse lung tissue” value was “can effectively orally deliver” and the “oral delivery of single-stranded sRNA nucleic acids into mouse pancreatic tissue” value was “can effectively orally deliver”. The “oral delivery of single-stranded sRNA nucleic acids into mouse spleen tissue” value was “can effectively orally deliver” and the “oral delivery of single-stranded sRNA nucleic acids into mouse stomach tissue” value was “can effectively orally deliver”.

`CCCC/C=C\CCCCCCCC(=O)OCCCCCCCCCCCCCCCCCCCCCC` [Lipid 817, docosyl (Z)-tetradec-9-enoate] was tested, and the “oral delivery of single-stranded sRNA nucleic acids into mouse blood” value was “can effectively orally deliver”, the “oral delivery of single-stranded sRNA nucleic acids into mouse brain tissue” value was “can effectively orally deliver” and the “oral delivery of single-stranded sRNA nucleic acids into mouse femur” value was “can effectively orally deliver”. The “oral delivery of single-stranded sRNA nucleic acids into mouse heart tissue” value was “can effectively orally deliver”, the “oral delivery of single-stranded sRNA nucleic acids into mouse intestinal tissue” value was “can effectively orally deliver” and the “oral delivery of single-stranded sRNA nucleic acids into mouse kidney tissue” value was “can effectively orally deliver”. The “oral delivery of single-stranded sRNA nucleic acids into mouse liver tissue” value was “can effectively orally deliver”, the “oral delivery of single-stranded sRNA nucleic acids into mouse lung tissue” value was “can effectively orally deliver” and the “oral delivery of single-stranded sRNA nucleic acids into mouse pancreatic tissue” value was “can effectively orally deliver”. The “oral delivery of single-stranded sRNA nucleic acids into mouse spleen tissue” value was “can effectively orally deliver” and the “oral delivery of single-stranded sRNA nucleic acids into mouse stomach tissue” value was “can effectively orally deliver”.

In the case of `CCCCCC/C=C\CCCCCCCC(=O)OCCCCCCCCCCCCCCCCC` [Lipid 818, heptadecyl (Z)-hexadec-9-enoate], the “oral delivery of single-stranded sRNA nucleic acids into mouse blood” value is reported as “can effectively orally deliver”, the “oral delivery of single-stranded sRNA nucleic acids into mouse brain tissue” value is reported as “can effectively orally deliver” and the “oral delivery of single-stranded sRNA nucleic acids into mouse femur” value is reported as “can effectively orally deliver”. For the same molecule, the “oral delivery of single-stranded sRNA nucleic acids into mouse heart tissue” value was “can effectively orally deliver”, the “oral delivery of single-stranded sRNA nucleic acids into mouse intestinal tissue” value was “can effectively orally deliver” and the “oral delivery of single-stranded sRNA nucleic acids into mouse kidney tissue” value was “can effectively orally deliver”. The “oral delivery of single-stranded sRNA nucleic acids into mouse liver tissue” value was “can effectively orally deliver”, the “oral delivery of single-stranded sRNA nucleic acids into mouse lung tissue” value was “can effectively orally deliver” and the “oral delivery of single-stranded sRNA nucleic acids into mouse pancreatic tissue” value was “can effectively orally deliver”. The “oral delivery of single-stranded sRNA nucleic acids into mouse spleen tissue” value was “can effectively orally deliver” and the “oral delivery of single-stranded sRNA nucleic acids into mouse stomach tissue” value was “can effectively orally deliver”.

With `CCCCCC/C=C\CCCCCCCC(=O)OCCCCCCCCCCCCCCCCCCCCCCCC` [Lipid 819, tetracosyl (Z)-hexadec-9-enoate] the “oral delivery of single-stranded sRNA nucleic acids into mouse blood” value was “can effectively orally deliver”, the “oral delivery of single-stranded sRNA nucleic acids into mouse brain tissue” value was “can effectively orally deliver” and the “oral delivery of single-stranded sRNA nucleic acids into mouse femur” value was “can effectively orally deliver”. The “oral delivery of single-stranded sRNA nucleic acids into mouse heart tissue” value was “can effectively orally deliver”, the “oral delivery of single-stranded sRNA nucleic acids into mouse intestinal tissue” value was “can effectively orally deliver” and the “oral delivery of single-stranded sRNA nucleic acids into mouse kidney tissue” value was “can effectively orally deliver”. For the same molecule, the “oral delivery of single-stranded sRNA nucleic acids into mouse liver tissue” value was “can effectively orally deliver”, the “oral delivery of single-stranded sRNA nucleic acids into mouse lung tissue” value was “can effectively orally deliver” and the “oral delivery of single-stranded sRNA nucleic acids into mouse pancreatic tissue” value was “can effectively orally deliver”. The “oral delivery of single-stranded sRNA nucleic acids into mouse spleen tissue” value was “can effectively orally deliver” and the “oral delivery of single-stranded sRNA nucleic acids into mouse stomach tissue” value was “can effectively orally deliver”.

With `CCCCCC/C=C\CCCCCCCC(=O)OCCCCCCCCCCCCCCCCCCCCC` [Lipid 820, henicosyl (Z)-hexadec-9-enoate] the “oral delivery of single-stranded sRNA nucleic acids into mouse blood” value was “can effectively orally deliver”, the “oral delivery of single-stranded sRNA nucleic acids into mouse brain tissue” value was “can effectively orally deliver” and the “oral delivery of single-stranded sRNA nucleic acids into mouse femur” value was “can effectively orally deliver”. For the same molecule, the “oral delivery of single-stranded sRNA nucleic acids into mouse heart tissue” value was “can effectively orally deliver”, the “oral delivery of single-stranded sRNA nucleic acids into mouse intestinal tissue” value was “can effectively orally deliver” and the “oral delivery of single-stranded sRNA nucleic acids into mouse kidney tissue” value was “can effectively orally deliver”. For the same molecule, the “oral delivery of single-stranded sRNA nucleic acids into mouse liver tissue” value was “can effectively orally deliver”, the “oral delivery of single-stranded sRNA nucleic acids into mouse lung tissue” value was “can effectively orally deliver” and the “oral delivery of single-stranded sRNA nucleic acids into mouse pancreatic tissue” value was “can effectively orally deliver”. For the same molecule, the “oral delivery of single-stranded sRNA nucleic acids into mouse spleen tissue” value was “can effectively orally deliver” and the “oral delivery of single-stranded sRNA nucleic acids into mouse stomach tissue” value was “can effectively orally deliver”.

With `CCCCCC/C=C\CCCCCCCC(=O)OCCCCCCCCCCCCCCC` [Lipid 821, pentadecyl (Z)-hexadec-9-enoate] the “oral delivery of single-stranded sRNA nucleic acids into mouse blood” value was “can effectively orally deliver”, the “oral delivery of single-stranded sRNA nucleic acids into mouse brain tissue” value was “can effectively orally deliver” and the “oral delivery of single-stranded sRNA nucleic acids into mouse femur” value was “can effectively orally deliver”. For the same molecule, the “oral delivery of single-stranded sRNA nucleic acids into mouse heart tissue” value was “can effectively orally deliver”, the “oral delivery of single-stranded sRNA nucleic acids into mouse intestinal tissue” value was “can effectively orally deliver” and the “oral delivery of single-stranded sRNA nucleic acids into mouse kidney tissue” value was “can effectively orally deliver”. The “oral delivery of single-stranded sRNA nucleic acids into mouse liver tissue” value was “can effectively orally deliver”, the “oral delivery of single-stranded sRNA nucleic acids into mouse lung tissue” value was “can effectively orally deliver” and the “oral delivery of single-stranded sRNA nucleic acids into mouse pancreatic tissue” value was “can effectively orally deliver”. The “oral delivery of single-stranded sRNA nucleic acids into mouse spleen tissue” value was “can effectively orally deliver” and the “oral delivery of single-stranded sRNA nucleic acids into mouse stomach tissue” value was “can effectively orally deliver”.

In the case of `CCCCCC/C=C\CCCCCCCC(=O)OCCCCCCCCCCCCCCCCCCC` [Lipid 822, nonadecyl (Z)-hexadec-9-enoate], the “overall delivery efficacy: delivering nucleic acids into each tissue and blood tested” value (100 μg lipid:10 nmol PGY-sRNA-26, all tissues and blood tested) is reported as “best delivery efficacy”, the “oral delivery of single-stranded sRNA nucleic acids into mouse blood” value is reported as “can effectively orally deliver” and the “oral delivery of single-stranded sRNA nucleic acids into mouse brain tissue” value is reported as “can effectively orally deliver”. For the same molecule, the “oral delivery of single-stranded sRNA nucleic acids into mouse femur” value was “can effectively orally deliver”, the “oral delivery of single-stranded sRNA nucleic acids into mouse heart tissue” value was “can effectively orally deliver” and the “oral delivery of single-stranded sRNA nucleic acids into mouse intestinal tissue” value was “can effectively orally deliver”. The “oral delivery of single-stranded sRNA nucleic acids into mouse kidney tissue” value was “can effectively orally deliver”, the “oral delivery of single-stranded sRNA nucleic acids into mouse liver tissue” value was “can effectively orally deliver” and the “oral delivery of single-stranded sRNA nucleic acids into mouse lung tissue” value was “can effectively orally deliver”. The “oral delivery of single-stranded sRNA nucleic acids into mouse pancreatic tissue” value was “can effectively orally deliver”, the “oral delivery of single-stranded sRNA nucleic acids into mouse spleen tissue” value was “can effectively orally deliver” and the “oral delivery of single-stranded sRNA nucleic acids into mouse stomach tissue” value was “can effectively orally deliver”.
